In patent US10695334B2, “Heteroaromatic carboxamide derivatives as plasma kallikrein inhibitors” (Boehringer Ingelheim International GmbH, priority 2018, dated 2020):
Counter-ions that a name gives are not always drawn.

Biological target: Human PKK (Homo sapiens (Human), UniProt P03952)
Experiment: Inhibition of PKK, endpoint assay (human PKK)
Type: biochemical
Conditions: substrate H-Pro-Phe-Arg-AMC, 1 h room temperature
Description: Subsequently, PPACK II (Calbiochem) was added as a stop solution to achieve a final concentration of 1 μM and fluorescence was measured using an Envision Reader (PerkinElmer) with the wavelength excitation setting of 355 nm and the wavelength emission setting of 460 nm.

Human PKK, sequence (P03952 391-638): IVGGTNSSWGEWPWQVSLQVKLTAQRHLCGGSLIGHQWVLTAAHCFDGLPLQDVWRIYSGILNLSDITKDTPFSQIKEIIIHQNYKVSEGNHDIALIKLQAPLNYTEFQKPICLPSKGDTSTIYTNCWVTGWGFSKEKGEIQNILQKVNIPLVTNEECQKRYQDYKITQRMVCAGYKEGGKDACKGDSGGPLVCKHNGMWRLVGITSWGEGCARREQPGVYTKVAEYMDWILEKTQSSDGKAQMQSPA
Human PKK, sequence (P03952 20-390 partner): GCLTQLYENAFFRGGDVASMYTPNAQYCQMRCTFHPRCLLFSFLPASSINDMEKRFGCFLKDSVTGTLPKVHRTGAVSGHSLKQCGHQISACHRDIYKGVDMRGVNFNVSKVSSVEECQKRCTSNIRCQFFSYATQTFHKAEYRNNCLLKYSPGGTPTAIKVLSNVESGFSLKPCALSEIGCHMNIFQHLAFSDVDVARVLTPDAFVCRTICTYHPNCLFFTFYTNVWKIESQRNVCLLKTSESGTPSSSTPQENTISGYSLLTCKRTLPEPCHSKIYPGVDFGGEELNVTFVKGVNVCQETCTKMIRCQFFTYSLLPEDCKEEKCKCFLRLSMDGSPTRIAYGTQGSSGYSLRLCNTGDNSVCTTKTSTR

| Structure (SMILES) | IC50 [nM] |
| --- | --- |
| Cc1nc(N2CC3CC(C2)C3O)ccc1Cn1cc(C(=O)N[C@@H]2CCc3c2n[nH]c3C)cn1 (stereo partly drawn) [Example 39, 1-[(6-{6-Hydroxy-3-azabicyclo[3.1.1]heptan-3-yl]-2-methylpyridin-3-yl)methyl]-N-[(6R)-3-methyl-2H,4H,5H,6H-cyclopenta[c]pyrazol-6-yl]-1H-pyrazole-4-carboxamide] | 9 |
| Cc1nc(N2CC3C(C2)C3(F)F)ncc1Cn1cc(C(=O)N[C@@H]2CCc3c2n[nH]c3C)cn1 (stereo partly drawn) [Example 84, 1-[(2-{6,6-Difluoro-3-azabicyclo[3.1.0]hexan-3-yl}-4-methylpyrimidin-5-yl)methyl]-N-[(6R)-3-methyl-2H,4H,5H,6H-cyclopenta[c]pyrazol-6-yl]-1H-pyrazole-4-carboxamide, TFA salt] | 2 |
| Cc1nc(N2CC(c3ccc(F)cc3)C2)ccc1Cn1cc(C(=O)N[C@@H]2CCc3c2n[nH]c3C)cn1 [Example 81, 1-({6-[3-(4-Fluorophenyl)azetidin-1-yl]-2-methylpyridin-3-yl}methyl)-N-[(6R)-3-methyl-2H,4H,5H,6H-cyclopenta[c]pyrazol-6-yl]-1H-pyrazole-4-carboxamide] | 161 |
| COCc1nn(Cc2cnc(N3CC4(CC4)C3)nc2C)cc1C(=O)N[C@@H]1CCc2c(C)n[nH]c21 [Example 31, 1-[(2-{5-Azaspiro[2.3]hexan-5-yl}-4-methyl-pyrimidin-5-yl)methyl]-3-(methoxymethyl)-N-[(6R)-3-methyl-1H,4H,5H,6H-cyclopenta[c]pyrazol-6-yl]-1H-pyrazole-4-carboxamide] | 10 |
| Cc1nc(N2CC3CC3C2)ccc1Cn1cc(C(=O)N[C@H]2CCc3c(C)n[nH]c32)cn1 (stereo partly drawn) [Example 2, 1-[(6-{3-Azabicyclo[3.1.0]hexan-3-yl}-2-methylpyridin-3-yl)methyl]-N-[(6S)-3-methyl-1H,4H,5H,6H-cyclopenta[c]pyrazol-6-yl]-1H-pyrazole-4-carboxamide] | 32 |
| Cc1nc(N2CC(C(C)C)C2)ccc1Cn1cc(C(=O)N[C@@H]2CCc3c2n[nH]c3C)cn1 [Example 70, N-[(6R)-3-Methyl-2H,4H,5H,6H-cyclopenta[c]pyrazol-6-yl]-1-({2-methyl-6-[3-(propan-2-yl)azetidin-1-yl]pyridin-3-yl}lmethyl)-1H-pyrazole-4-carboxamide] | 13 |
| COC1C2CC1CN(c1ccc(Cn3cc(C(=O)N[C@@H]4CCc5c4n[nH]c5C)cn3)c(C)n1)C2 (stereo partly drawn) [Example 53, 1-[(6-{6-methoxy-3-azabicyclo[3.1.1]heptan-3-yl}-2-methylpyridin-3-yl)methyI]-N-[(6R)-3-methyl-2H,4H,5H,6H-cyclopenta[c]pyrazol-6-yl]-1H-pyrazole-4-carboxamide] | 9 |
| Cc1nc(N2CC3C(C2)C3(F)F)ccc1Cn1cc(C(=O)N[C@H]2CCc3c(C)n[nH]c32)cn1 (stereo partly drawn) [Example 4, 1-[(6-{6,6-Difluoro-3-azabicyclo[3.1.0]hexan-3-yl}-2-methylpyridin-3-yl)methyl]-N-[(6S)-3-methyl-1H,4H,5H,6H-cyclopenta[c]pyrazol-6-yl]-1H-pyrazole-4-carboxamide] | 9 |
| Cc1nc(N2CCCCC2)ccc1Cn1cc(C(=O)N[C@@H]2CCc3c2n[nH]c3C)cn1 [Example 34, N-[(6R)-3-Methyl-2H,4H,5H,6H-cyclopenta[c]pyrazol-6-yl]-1-{[2-methyl-6-(piperidin-1-yl)pyridin-3-yl]methyl}-1H-pyrazole-4-carboxamide] | 11 |
| Cc1nc(N2CC3(CC3)C2)ncc1Cn1cc(C(=O)N[C@@H]2CCc3c(C)n[nH]c32)cn1 [Example 30, 1-[(2-{5-Azaspiro[2.3]hexan-5-yl}-4-methyl-pyrimidin-5-yl)methyl]-N-[(6R)-3-methyl-1H,4H,5H,6H-cyclopenta[c]pyrazol-6-yl]-1H-pyrazole-4-carboxamide] | 8 |
| Cc1nc(N2CC(CO)C2)ccc1Cn1cc(C(=O)N[C@@H]2CCc3c2n[nH]c3C)cn1 [Example 56, 1-({6-[3-(Hydroxymethyl)azetidin-1-yl]-2-methylpyridin-3-yl}methyl)-N-[(6R)-3-methyl-2H,4H,5H,6H-cyclopenta[c]pyrazol-6-yl]-1H-pyrazole-4-carboxamide] | 56 |
| Cc1nc(N2CC(F)(C(F)(F)F)C2)ccc1Cn1cc(C(=O)N[C@@H]2CCc3c2n[nH]c3C)cn1 [Example 74, 1-({6-[3-Fluoro-3-(trifluoromethyl)azetidin-1-yl]-2-methylpyridin-3-yl}methyl)-N-[(6R)-3-methyl-2H,4H,5H,6H-cyclopenta[c]pyrazol-6-yl]-1H-pyrazole-4-carboxamide] | 38 |
| Cc1nc(N2CC3C(C2)C3(F)F)ncc1Cn1cc(C(=O)N[C@@H]2CCc3c(C)n[nH]c32)c(C)n1 (stereo partly drawn) [Example 27, 1-[(2-{6,6-Difluoro-3-azabicyclo[3.1.0]hexan-3-yl}-4-methylpyrimidin-5-yl)methyl]-3-methyl-N-[(6R)-3-methyl-1H,4H,5H,6H-cyclopenta[c]pyrazol-6-yl]-1H-pyrazole-4-carboxamide] | 3 |
| COC1(C)CN(c2ccc(Cn3cc(C(=O)N[C@@H]4CCc5c4n[nH]c5C)cn3)c(C)n2)C1 [Example 44, 1-{[6-(3-Methoxy-3-methylazetidin-1-yl)-2-methylpyridin-3-yl]methyl}-N-[(6R)-3-methyl-2H,4H,5H,6H-cyclopenta[c]pyrazol-6-yl]-1H-pyrazole-4-carboxamide] | 20 |
| Cc1nc(N2CC3(CC3)C2)ncc1Cn1cc(C(=O)N[C@@H]2CCc3c(C)n[nH]c32)c(C)n1 [Example 29, 1-[(2-{5-Azaspiro[2.3]hexan-5-yl}-4-methyl-pyrimidin-5-yl)methyl]-3-methyl-N-[(6R)-3-methyl-1H,4H,5H,6H-cyclpenta[c]pyrazol-6-yl]-1H-pyrazole-4-carboxamide] | 7 |
| Cc1nc(N2CC3(C2)CC3(F)F)ccc1Cn1cc(C(=O)N[C@@H]2CCc3c2n[nH]c3C)cn1 [Example 51, 1-[(6-{1,1-Difluoro-5-azaspiro[2.3]hexan-5-yl}-2-methylpyridin-3-yl)methyl]-N-[(6R)-3-methyl-2H,4H,5H,6H-cyclopenta[c]pyrazol-6-yl]-1H-pyrazole-4-carboxamide] | 25 |
| Cc1nc(N2C[C@@H]3[C@@H](O)[C@@H]3C2)ccc1Cn1cc(C(=O)N[C@@H]2CCc3c2n[nH]c3C)cn1 [Example 59, 1-({6-[(1R,5S,6R)-6-Hydroxy-3-azabicyclo[3.1.0]hexan-3-yl]-2-methylpyridin-3-yl}methyl)-N-[(6R)-3-methyl-2H,4H,5H,6H-cyclopenta[c]pyrazol-6-yl]-1H-pyrazole-4-carboxamide] | 17 |
| Cc1nc(N2CC3C(C2)C3(C)C)ccc1Cn1cc(C(=O)N[C@@H]2CCc3c2n[nH]c3C)cn1 (stereo partly drawn) [Example 80, 1-[(6-{6,6-Dimethyl-3-azabicyclo[3.1.0]hexan-3-yl]-2-methylpyridin-3-yl)methyl]-N-[(6R)-3-methyl-2H,4H,5H,6H-cyclopenta[c]pyrazol-6-yl]-1H-pyrazole-4-carboxamide] | 9 |
| Cc1nc(N2CC3C(C2)C3(F)F)ncc1Cn1cc(C(=O)N[C@@H]2CCc3c(C)n[nH]c32)nn1 (stereo partly drawn) [Example 85, 1-[(2-{6,6-Difluoro-3-azabicyclo[3.1.0]hexan-3-yl}-4-methylpyrimidin-5-yl)methyl]-N-[(6R)-3-methyl-1H,4H,5H,6H-cyclopenta[c]pyrazol-6-yl]-1H-1,2,3-triazole-4-carboxamide] | 4 |
| Cc1nc(N2C[C@@H]3[C@@H](CF)[C@@H]3C2)ccc1Cn1cc(C(=O)N[C@@H]2CCc3c2n[nH]c3C)cn1 [Example 95, 1-({6-[(1R,5S,6R)-6-(Fluoromethyl)-3-azabicyclo[3.1.0]hexan-3-yl]-2-methylpyridin-3-yl}methyl)-N-[(6R)-3-methyl-2H,4H,5H,6H-cyclopenta[c]pyrazol-6-yl]-1H-pyrazole-4-carboxamide] | 4 |
| Cc1nc(N2CC[C@](C)(O)C2)ccc1Cn1cc(C(=O)N[C@@H]2CCc3c2n[nH]c3C)cn1 [Example 83, 1-({6-[(3S)-3-Hydroxy-3-methylpyrrolidin-1-yl]-2-methylpyridin-3-yl}methyl)-N-[(6R)-3-methyl-2H,4H,5H,6H-cyclopenta[c]pyrazol-6-yl]-1H-pyrazole-4-carboxamide] | 41 |
| Cc1nc(N2CC3CCC3C2)ccc1Cn1cc(C(=O)N[C@@H]2CCc3c2n[nH]c3C)cn1 (stereo partly drawn) [Example 68, 1-[(6-{3-Azabicyclo[3.2.0]heptan-3-yl}-2-methylpyridin-3-yl)methyl]-N-[(6R)-3-methyl-2H,4H,5H,6H-cyclopenta[c]pyrazol-6-yl]-1H-pyrazole-4-carboxamide] | 4 |
| COCc1nn(Cc2cnc(N3CC4CC4C3)nc2C)cc1C(=O)N[C@@H]1CCc2c(C)n[nH]c21 (stereo partly drawn) [Example 28, 1-[(2-{3-Azabicyclo[3.1.0]hexan-3-yl}-4-methyl-pyrimidin-5-yl)methyl]-3-(methoxymethyl)-N-[(6R)-3-methyl-1H,4H,5H,6H-cyclopenta[c]pyrazol-6-yl]-1H-pyrazole-4-carboxamide] | 4 |
| Cc1nc(N2CC3CC3C2)ccc1Cn1ncc(C(=O)N[C@@H]2CCc3c(C)n[nH]c32)n1 (stereo partly drawn) [Example 10, 2-[(6-{3-Azabicyclo[3.1.0]hexan-3-yl}-2-methylpyridin-3-yl)methyl]-N-[(6R)-3-methyl-1H,4H,5H,6H-cyclopenta[c]pyrazol-6-yl]-2H-1,2,3-triazole-4-carboxamide] | 26 |
| Cc1nc(N2CC3CC3C2)ncc1Cn1cnc(C(=O)N[C@@H]2CCc3c2n[nH]c3C)c1 (stereo partly drawn) [Example 91, 1-[(2-{3-Azabicyclo[3.1.0]hexan-3-yl}-4-methyl-pyrimidin-5-yl)methyl]-N-[(6R)-3-methyl-2H,4H,5H,6H-cyclopenta[c]pyrazol-6-yl]-1H-imidazole-4-carboxamide] | 3 |
| Cc1nc(N2CC3C(C2)C3(F)F)ccc1Cn1cc(C(=O)N[C@@H]2CCc3c(C)n[nH]c32)c(C)n1 (stereo partly drawn) [Example 18, 1-[(6-{6,6-Difluoro-3-azabicyclo[3.1.0]hexan-3-yl}-2-methylpyridin-3-yl)methyl]-3-methyl-3-methyl-N-[(6R)-3-methyl-1H,4H,5H,6H-cyclopenta[c]pyrazol-6-yl]-1H-pyrazole-4-carboxamide] | 0.9 |
